According to PMC5447088, “The Hybrid Strategy of Thermoactinospora rubra YIM 77501^T for Utilizing Cellulose as a Carbon Source at Different Temperatures” (Frontiers in Microbiology, 2017):

Assays:
Assay in all cases: p-nitrophenol release, absorbance at […] nm
Format in all cases: biochemical, Thermoactinospora rubra
TrBG3 = settings: optimal temperature 50 °C; optimal pH; pNPGlu assumed as the substrate of Table S5
TrBG5 = settings: optimal temperature 50-60 °C; optimal pH; pNPGlu assumed as the substrate of Table S5
TrBG1 = settings: optimal temperature 40 °C; optimal pH; pNPGlu assumed as the substrate of Table S5
TrBG2 = settings: optimal temperature 60 °C; optimal pH; pNPGlu assumed as the substrate of Table S5

Km (TrBG3): 5.9 mM
Km (TrBG5): 1.4 mM
Km (TrBG1): 9.8 mM
Km (TrBG2): 0.31 mM
Compound: O=[N+]([O-])c1ccc(O[C@@H]2O[C@H](CO)[C@@H](O)[C@H](O)[C@H]2O)cc1 [p-nitrophenyl-β-D-glucopyranoside]
